Reference: publication PMC2360547 (British Journal of Cancer, 2006)
Several values for one entry are separate records, joined by “and”; a condition that tells them apart may be missing. Equal values may be shown once. Entries after “also recorded” stand apart in the source; their conditions may differ.

Tests used:
metastatic melanoma = assay: Phase IIA clinical trial: tumour response, survival, performance status; type: in vivo, human; parameters: key to Best response: PD: progressive disease; SD: stable disease (<25% increase overall diameter of any lesion; no new lesions, after at least 4 weeks); NA: not assessable
Text: There was no limit on the amount of prior therapy, but no prior chemotherapy or immunotherapy was permitted in the 4 weeks before study entry. Patients with CNS metastases were eligible. At least the first 14 patients entered were also required to have at least two lesions suitable for excision biopsy (skin, subcutaneous metastases). Written informed consent was obtained from all patients and the protocol was approved by the Human Research Ethics Committees of the participating institutions.
This fixed dose schedule was calculated from the Phase I study, in which higher single daily doses were associated with more GIT toxicity.
Patients were reviewed for safety and efficacy of midostaurin weekly for the first month, and then on a monthly basis, or more frequently where symptoms warranted. Disease sites were re-evaluated by clinical examination monthly or CT every 2 months, or more frequently if disease progression was suspected.
(§1) It was planned to recruit 14 patients with disease suitable for biopsy as the first cohort. […] If at least one response occurred, a further 13 patients (not necessarily with disease suited for biopsy) would be recruited. Response and toxicity were assessed using WHO criteria.

[1] = system: patients with metastatic melanoma; assay: Phase IIA clinical trial: safety and toxicity; type: in vivo, human
Description: Disease sites were re-evaluated by clinical examination monthly or CT every 2 months, or more frequently if disease progression was suspected.
as §1

Compound: CO[C@@H]1[C@H](N(C)C(=O)c2ccccc2)C[C@H]2O[C@]1(C)n1c3ccccc3c3c4c(c5c6ccccc6n2c5c31)C(=O)NC4 [Midostaurin, N-benzoyl-staurosporine]
- Median survival (metastatic melanoma; 17 patients, 75 mg p.o. t.i.d.): 43 days
- Survival, range (metastatic melanoma; 17 patients, 75 mg p.o. t.i.d.): 8 to 113 days
- Tumour response (metastatic melanoma; 17 patients, midostaurin 75 mg p.o. t.i.d.): No tumour responses were seen; also recorded: No patient obtained a tumour response
- Patients with no change of ECOG performance status (metastatic melanoma; eight patients, on study): 47%
- Patients with progressive disease (metastatic melanoma; fourteen out of 17 patients, 75 mg p.o. t.i.d.): 82%
- Duration of stable disease (best response duration) (metastatic melanoma; individual patients with stable disease, midostaurin 75 mg p.o. t.i.d.): 50 days and 85 days
- Best response (metastatic melanoma; individual patients, midostaurin 75 mg p.o. t.i.d., WHO criteria): PD and SD (2×)
- Patients with worsening of ECOG performance status (metastatic melanoma; nine patients, on study): 53%
- Patients with stable disease (metastatic melanoma; two out of 17 patients, 75 mg p.o. t.i.d.): 12%
- Patients with anaemia ([1]; 17 patients): 12 patients
- Patients with anaemia reaching grade 2 ([1]; 17 patients): five
- Patients requiring dose modification for nausea or vomiting ([1]; 17 patients, 75 mg p.o. t.i.d.): Two
- Patients with hyperglycemia ([1]; 17 patients, one of Grade 2 severity): Four
- Patients with elevated liver enzymes (alanine transaminase or aspartate transaminase) possibly linked to therapy ([1]; 17 patients, only one reached grade 2): four
- Patients who discontinued owing to nausea, vomiting, diarrhoea and/or fatigue possibly related to study drug ([1]; seven out of 17 patients, 75 mg p.o. t.i.d.): 41%
